Some test systems named below: BT-549 breast; DU-145 prostate; HOP-92 NSCLC; HT29 colon; IGROV1 ovarian; NCI-H23 lung; NCI-H522 lung; OVCAR-3 ovarian; OVCAR-4 ovarian; SF-539 CNS; SK-MEL-2 melanoma; SK-OV-3 ovarian; SNB-19 CNS; T-47D breast; U251 CNS; UO-31 renal; A498 renal.
What all share (assay): NCI tumour cell line growth inhibition, 48 h

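Cells were grown in 96-well plates and exposed to each compound for 48 hours at five concentrations; endpoints were interpolated linearly between bracketing concentrations, or set to the highest concentration if not reached. Definition used: TGI = concentration required for complete inhibition of growth.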

Take `COc1ccc(C[C@H]2COC(=O)[C@@H]2Cc2ccc(Br)cc2)cc1OC`: the TGI in the experiment on BT-549 breast was 84.2 µM; with DU-145 prostate, > 84.3 µM; in the experiment with HOP-92 NSCLC, 79.5 µM; in the experiment on HT29 colon it was > 100 µM; with IGROV1 ovarian it was > 92.4 µM; in the experiment on NCI-H23 lung it was > 100 µM. The TGI in the experiment with NCI-H522 lung is > 71.1 µM; in the experiment on OVCAR-3 ovarian it was > 100 µM; in the experiment on OVCAR-4 ovarian, > 100 µM; in the experiment with SF-539 CNS, > 100 µM; in the experiment with SK-MEL-2 melanoma it was 51.8 µM; with SK-OV-3 ovarian it was > 100 µM. In addition, the TGI with SNB-19 CNS was > 61.8 µM; in the experiment on T-47D breast, > 100 µM; in the experiment with U251 CNS it was > 100 µM; with UO-31 renal, 24.2 µM.

As to `N#CCCC1(CCC#N)S(=O)(=O)OCCOS1(=O)=O`, the TGI in the experiment on BT-549 breast, with DU-145 prostate, in the experiment on HT29 colon, in the experiment on NCI-H23 lung, in the experiment with NCI-H522 lung and in the experiment on OVCAR-3 ovarian was > 100 µM throughout. The TGI was > 100 µM with OVCAR-4 ovarian; 31.1 µM in the experiment with SF-539 CNS; > 100 µM in the experiment with SK-MEL-2 melanoma; > 100 µM in the experiment with SK-OV-3 ovarian; > 100 µM with SNB-19 CNS; > 100 µM with T-47D breast. For the same molecule, the TGI in the experiment on U251 CNS and in the experiment with UO-31 renal was > 100 µM throughout.

As for `NC1=NC(c2ccc(Cl)cc2)=CC(c2cccc(Cl)c2)S1` (stereo not given), the TGI is > 100 µM in the experiment with BT-549 breast; > 100 µM in the experiment on DU-145 prostate; 60.1 µM with HOP-92 NSCLC; > 100 µM with HT29 colon; > 100 µM in the experiment with IGROV1 ovarian; > 100 µM with NCI-H23 lung. For the same molecule, the TGI in the experiment on NCI-H522 lung was 55.8 µM; in the experiment with OVCAR-3 ovarian, > 100 µM; with OVCAR-4 ovarian it was 60.5 µM; with SF-539 CNS it was > 100 µM; with SK-MEL-2 melanoma, 55.5 µM; with SK-OV-3 ovarian, > 100 µM. Besides, the TGI is 44.9 µM in the experiment on SNB-19 CNS, > 100 µM in the experiment with T-47D breast, 55.5 µM with U251 CNS and 84.6 µM with UO-31 renal.

On to `CC(=O)Oc1ccc2c(c1)[nH]c1c3ccc(OC(C)=O)cc3oc(=O)c21`, for which the TGI was 68.2 µM in the experiment with BT-549 breast; > 100 µM with DU-145 prostate; > 100 µM in the experiment with HOP-92 NSCLC; > 100 µM in the experiment with HT29 colon; > 100 µM with IGROV1 ovarian; > 100 µM in the experiment on NCI-H23 lung. Moreover, the TGI with NCI-H522 lung is > 100 µM; with OVCAR-3 ovarian it was 71.9 µM; with OVCAR-4 ovarian it was > 100 µM; with SF-539 CNS it was > 100 µM; with SK-OV-3 ovarian, > 100 µM; in the experiment on SNB-19 CNS, > 100 µM. Further, the TGI in the experiment on T-47D breast is 48.9 µM; with U251 CNS, > 100 µM; in the experiment with UO-31 renal, > 100 µM.

As for `Cc1cc(NS(=O)(=O)c2ccc(NO)cc2)no1`, the TGI in the experiment with A498 renal, in the experiment with BT-549 breast, in the experiment on DU-145 prostate, with HOP-92 NSCLC, with HT29 colon and in the experiment with IGROV1 ovarian was > 100 µM throughout. The TGI with OVCAR-3 ovarian, in the experiment with OVCAR-4 ovarian, in the experiment on SF-539 CNS, in the experiment on SK-MEL-2 melanoma, in the experiment with SK-OV-3 ovarian and in the experiment with SNB-19 CNS was > 100 µM in each case. In addition, the TGI in the experiment with UO-31 renal was > 100 µM.

Consider `CC(C)CC(N)C(=O)NC(CNC(CCC(N)=O)C(=O)NC(CC(C)C)C(=O)NC(CC(C)C)C(=O)O)Cc1ccc2ccccc2c1` (stereo not given), for which the TGI with A498 renal, in the experiment with BT-549 breast, in the experiment on DU-145 prostate, in the experiment on HOP-92 NSCLC, in the experiment with HT29 colon and with IGROV1 ovarian was > 10 µM each time. For the same molecule, the TGI with NCI-H23 lung, with OVCAR-3 ovarian, in the experiment with OVCAR-4 ovarian, in the experiment on SF-539 CNS, in the experiment on SK-MEL-2 melanoma and in the experiment with SK-OV-3 ovarian was > 10 µM each time. The TGI in the experiment with SNB-19 CNS, with U251 CNS and in the experiment on UO-31 renal was > 10 µM in each case.

As to `COc1cc2c(cc1NC(=O)c1ccccc1)c1c(n2S(=O)(=O)c2ccccc2)CCN(S(=O)(=O)c2ccccc2)C1`, the TGI in the experiment with A498 renal, in the experiment on BT-549 breast, with DU-145 prostate, in the experiment with HOP-92 NSCLC, in the experiment on HT29 colon and in the experiment with IGROV1 ovarian was > 100 µM throughout. Moreover, the TGI in the experiment on NCI-H23 lung, with OVCAR-3 ovarian, in the experiment on OVCAR-4 ovarian, with SK-MEL-2 melanoma, with SK-OV-3 ovarian and in the experiment with SNB-19 CNS was > 100 µM in each case. In addition, the TGI in the experiment on T-47D breast and with U251 CNS was > 100 µM throughout.

Turning to `CC(C)=CCC/C(C)=C/Cc1c2c(c3oc(-c4ccc(O)c(O)c4)c(O)c(=O)c3c1O)C=CC(C)(C)O2`, the TGI in the experiment with A498 renal turned out to be 12.9 µM; in the experiment with BT-549 breast, 15 µM; in the experiment on DU-145 prostate it was 8.59 µM; in the experiment with HT29 colon it was 9.79 µM; with IGROV1 ovarian, 8.5 µM; in the experiment with NCI-H23 lung it was 11.6 µM. In addition, the TGI with NCI-H522 lung came to 2.9 µM; in the experiment with OVCAR-3 ovarian, 6.34 µM; in the experiment with OVCAR-4 ovarian it was 9.5 µM; in the experiment with SF-539 CNS it was 7 µM; in the experiment on SK-MEL-2 melanoma it was 13.7 µM; in the experiment on SK-OV-3 ovarian it was 8.65 µM. The TGI in the experiment on SNB-19 CNS came out at 12.5 µM; with T-47D breast, 7.39 µM; in the experiment with U251 CNS, 10.7 µM; with UO-31 renal, 10.2 µM.

As for `Cc1cc2c(cc1Cl)SC(NNCCO)=NS2(=O)=O`, the TGI with BT-549 breast, with DU-145 prostate, with HOP-92 NSCLC, with HT29 colon, in the experiment on IGROV1 ovarian and with NCI-H23 lung was > 100 µM each time. In addition, the TGI in the experiment on OVCAR-4 ovarian, in the experiment on SF-539 CNS, in the experiment on SK-MEL-2 melanoma, with SK-OV-3 ovarian, with SNB-19 CNS and with T-47D breast was > 100 µM each time. The TGI with U251 CNS and in the experiment with UO-31 renal was > 100 µM throughout.

Take `Cc1cc(C)c(NS(=O)c2ccc(Cl)cc2)c(C)c1` (stereo not given): the TGI in the experiment with A498 renal, in the experiment with BT-549 breast, in the experiment on DU-145 prostate, in the experiment with HOP-92 NSCLC, with HT29 colon and with NCI-H23 lung was > 100 µM each time. Moreover, the TGI in the experiment on OVCAR-3 ovarian, in the experiment on SF-539 CNS, in the experiment with SNB-19 CNS, with T-47D breast, in the experiment with U251 CNS and with UO-31 renal was > 100 µM each time.

(Values after PubChem BioAssay (NCI).)
